Measured values as given in patent publication US5089424A, “Method and apparatus for heterogeneous chemiluminescence assay” (Abbott Laboratories, priority 1989, dated 1992).

Key:
[1] = test system: Anti-phenylcyclidine antibodies; test: Ion-capture alkaline phosphatase labeled chemiluminescence competitive binding immunoassay for phenylcyclidine in urine; details: 0 ng/mL: 3526
[2] = test system: anti-PCP antibody; test: Fluorescence polarization competitive binding assay in solution (TDx), fluorescein-labeled PCP analog; details: 0 ng/mL: 198
[3] = test system: Monoclonal anti-phenylcyclidine antibody; test: Ion-capture acridinium labeled chemiluminescence competitive binding immunoassay for phenylcyclidine (PCP) in urine; details: for Signal Counts: integrated for eight seconds, 0 ng/mL: 188329
Method: Monoclonal anti-phenylcyclidine antibody was labeled with acridinium sulfonamide using EDAC coupling procedures known in the art. It was kept in the same buffer used for the anti-core conjugate of Example 3.
80 μL of IMx Tris buffer solution followed by 80 μL Celquat™ L-200 solutions were dispensed on the glass fiber matrices of the disposable reaction tray. Solutions were dispensed using two FMI-RH pumps and controlled via a triac board by an Intel 310 Development System (Intel Inc., Sunnyvale, Calif.). The tray was moved on a linear track using a timing belt and a stepper motor. The stepper motor was controlled by a board employing components known in the art. After 4.8 minutes, 50 μL of calibrator (sample) was pipetted into the shallow reaction wells of a disposable reaction tray, using an automated pipettor. 50 μL of acridinium labeled anti-PCP antibodies was dispensed into each incubation well. The mixture was incubated for 9.6 minutes in a heated tunnel at 32° C. with the disposable device moving into the tunnel by the timing belt in steps at the rate of 0.8 inches per minute, the reaction tray being stationary for 36 seconds after each step for a reaction step to take place. After 9.6 minutes incubation on the moving timing belt, 50 μL a solution containing PCP-PGA capture reagent at a concentration of 1.9 mg PGA/mL was dispensed into the incubation well through a tip centered on the well. The capture reagent solution was dispensed by an FMI-RH pump and controlled by the 310 Development system through a triac interface board. The reaction mixture was further incubated for 9.6 minutes. The quaternary ammonium polymer-treated glass fiber matrices were rinsed with 100 μL of the IMx buffer before reaction mixture transfer.
As the disposable tray was positioned under the transfer device as described herein, the reaction mixture was transferred and washed from the shallow incubation well onto the pre-treated glass fiber matrix in the detection well. The disposable tray was moved on the timing belt to allow subsequent well pairs to be located under the transfer device and to affect transfer of the reaction mixture. The disposable device was then moved to a read position, where the chemiluminescence detection head of the present invention was lowered to mate with the surface feature on the first two wells on the disposable to create a light-tight seal. The retained and immobilized immune complex on the glass fiber matrix was triggered using 0.3% alkaline peroxide solution in 0.25M NaOH and the signal from each PMT/amplifier was controlled by a counter/timer board and each side was triggered with an independent pump. The photon counter signal was integrated for eight seconds.

c1ccc(C2(N3CCCCC3)CCCCC2)cc1 [Phenylcyclidine, phenylcyclidine]
Chemiluminescence signal ([1]; 25 ng/mL phenylcyclidine in human urine): 2162 counts/6 seconds
Chemiluminescence signal ([1]; 60 ng/mL phenylcyclidine in human urine): 1440 counts/6 seconds
Chemiluminescence signal ([1]; 250 ng/mL phenylcyclidine in human urine): 1016 counts/6 seconds
Net Polarization ([2]; Table 4, 25 ng/mL): 173 ΔmP
Net Polarization ([2]; Table 4, 60 ng/mL): 144 ΔmP
Net Polarization ([2]; Table 4, 250 ng/mL): 82 ΔmP
Net Polarization ([2]; Table 5, 25 ng/mL): 173
Net Polarization ([2]; Table 5, 60 ng/mL): 144
Net Polarization ([2]; Table 5, 120 ng/mL): 112
Net Polarization ([2]; Table 5, 250 ng/mL): 82
Net Polarization ([2]; Table 5, 500 ng/mL): 65
% Inhibition ([3]; 25 ng/mL PCP in human urine): 73.3%
Signal Counts ([3]; 25 ng/mL PCP in human urine): 50347 counts
% Inhibition ([3]; 60 ng/mL PCP in human urine): 83.6%
Signal Counts ([3]; 60 ng/mL PCP in human urine): 30839 counts
% Inhibition ([3]; 120 ng/mL PCP in human urine): 87.3%
Signal Counts ([3]; 120 ng/mL PCP in human urine): 23977 counts
% Inhibition ([3]; 250 ng/mL PCP in human urine): 89.2%
Signal Counts ([3]; 250 ng/mL PCP in human urine): 20379 counts
% Inhibition ([3]; 500 ng/mL PCP in human urine): 89.5%
Signal Counts ([3]; 500 ng/mL PCP in human urine): 19759 counts
